{"source": "patent US8633203B2", "about": "“Use of pterocarpans as active anti-cellulite ingredients” (Symrise AG, priority 2009, dated 2014)", "key": {"lipoprotein lipase (LPL)": {"biological_target": "T1, lipoprotein lipase (LPL) (Mus musculus, UniProt P11152)", "T1 construct": "endogenous in cells; host or cells: differentiated 3T3-L1 cells (mouse); heparin-released supernatant", "T1 sequence (P11152 28-474)": "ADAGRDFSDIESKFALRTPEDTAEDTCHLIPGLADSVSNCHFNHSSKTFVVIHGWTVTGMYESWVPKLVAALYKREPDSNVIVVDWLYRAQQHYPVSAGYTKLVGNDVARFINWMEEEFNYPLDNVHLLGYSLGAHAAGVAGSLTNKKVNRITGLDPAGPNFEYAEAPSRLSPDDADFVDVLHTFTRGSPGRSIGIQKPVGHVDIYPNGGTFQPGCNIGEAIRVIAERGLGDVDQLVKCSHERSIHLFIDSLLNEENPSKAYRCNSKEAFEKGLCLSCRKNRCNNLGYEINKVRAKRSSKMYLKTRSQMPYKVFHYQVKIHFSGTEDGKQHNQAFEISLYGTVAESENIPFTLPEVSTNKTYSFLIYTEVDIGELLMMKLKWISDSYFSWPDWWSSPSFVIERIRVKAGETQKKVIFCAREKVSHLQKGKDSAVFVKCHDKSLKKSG", "assay": "inhibition of lipoprotein lipase from differentiated 3T3-L1 cells, MUF oleate hydrolysis", "format": "biochemical", "details": "LPL from 3T3-L1 cells; MUF oleate substrate; mean values of at least 2 independent tests", "description": "The results of the inhibition of the PL are used as a preliminary test and are confirmed on LPL. To obtain LPL, 3T3-L1 cells (mouse embryonal fibroblast adipocyte cell line) are seeded in a 6-well plate with collagen I-coating in a concentration of 3×10^5 cells/well. The cultivation and differentiation of the cells takes place analogously to the details in Example 2 (adipogenesis assay). During the differentiation LPL, is increasingly expressed. The LPL is present in a membrane-bound state and is released by one hour incubation with heparin solution at 2-8° C. in the supernatant of the cells.\nThe LPL thus obtained, in the presence of test substances in different use concentrations, has methylumbelliferyl oleate (MUF oleate) added as the substrate. Fluorescent methylumbelliferyl (MUF) is produced by hydrolysis of the MUF oleate by LPL and is quantified. The inhibition of the hydrolysis of the MUF oleate is a measure of the inhibition of the activity of the LPL and therefore the lipogenesis.\nThe IC50 is calculated from the inhibition of the LPL [%] in a series of dilutions of tested samples. This is the concentration at which the activity of the LPL and therefore the lipogenesis is 50% inhibited."}, "3T3-L1-cells": {"system": "3T3-L1-cells", "assay": "adipogenesis inhibition assay (Nile Red lipid staining)", "format": "cell-based, mouse", "details": "mean values of at least 2 independent tests", "description": "3T3-L1-cells (mouse embryonal fibroblast-like adipocyte cell line) are seeded in a 48-well plate with collagen I-coating in a concentration of 3×10^4 cells/well. After 72 h cultivation at 37° C. and 5% CO2 in DMEM (Dulbecco's Modified Eagle Medium), enriched with 10% calf serum, various concentrations of the test substances in DMEM, enriched with 10% foetal calf serum and to which are added 1 μg/ml insulin, 0.25 μM dexamethasone and 0.5 mM IBMX (3-isobutyl-1-methylxanthine), are added and incubated for a further 48 h. A media change takes place, in that DMEM, enriched with 10% foetal calf serum and with 1 μg/ml insulin added, are applied. After renewed cultivation for 48 h, a further media change takes place, in which DMEM, enriched with 10% foetal calf serum, is applied.\nAfter a further incubation for 72 h, the intracellularly stored lipids are quantified as a measure for the differentiation of the cells by measuring the fluorescence after dyeing of the lipids with the fluorescent dye Nile Red.\nThe inhibition of the adipogenesis in the presence of the test substances is calculated according to the following equation: […]\nThe IC50 is calculated from the adipogenesis inhibition (%) in a series of dilutions of tested samples. This is the concentration at which the adipogenesis is 50% inhibited."}, "pancreatic lipase (PL)": {"biological_target": "T2, pancreatic lipase (PL) (Sus scrofa, UniProt P00591)", "T2 construct": "purchased Sigma-Aldrich", "T2 sequence (P00591 1-450)": "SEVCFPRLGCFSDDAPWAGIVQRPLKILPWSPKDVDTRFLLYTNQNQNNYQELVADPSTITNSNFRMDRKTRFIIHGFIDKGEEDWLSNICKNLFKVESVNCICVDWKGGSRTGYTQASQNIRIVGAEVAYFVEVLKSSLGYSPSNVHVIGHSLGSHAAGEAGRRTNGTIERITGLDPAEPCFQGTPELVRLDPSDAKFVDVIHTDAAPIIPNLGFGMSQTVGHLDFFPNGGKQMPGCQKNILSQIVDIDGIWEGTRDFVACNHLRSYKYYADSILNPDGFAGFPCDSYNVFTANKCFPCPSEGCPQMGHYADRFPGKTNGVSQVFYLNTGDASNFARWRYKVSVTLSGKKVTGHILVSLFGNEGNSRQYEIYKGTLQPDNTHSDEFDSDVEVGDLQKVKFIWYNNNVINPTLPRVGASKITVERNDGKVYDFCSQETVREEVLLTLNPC", "assay": "inhibition of pancreatic lipase, MUF oleate hydrolysis", "format": "biochemical", "details": "MUF oleate substrate; mean values of at least 2 independent tests", "description": "Lipogenesis is taken to mean the storing of triglycerides in adipocytes. The inhibition of this storage can take place by means of the inhibition of the activity of extracellular lipoprotein lipase (LPL) in that the hydrolysis of extracellular triglycerides and therefore the absorption of free fatty acids by adipocytes is reduced. As a preliminary test, the inhibition of pancreatic lipase (PL) is investigated.\nPL (Sigma-Aldrich), in the presence of test substances in different use concentrations has methylumbelliferyl oleate (MUF oleate) added as a substrate. Fluorescent methylumelliferon (MUF), is produced by hydrolysis of the MUF oleate by PL and is quantified. The inhibition of the hydrolysis of the MUF oleate is a measure of the inhibition of activity of the PL.\nThe IC50 is calculated from the inhibition of the PL [%] in a series of dilutions of tested samples. This is the concentration, at which the activity of the PL is 50% inhibited."}, "[1]": {"system": "Primary human subcutaneous preadipocytes differentiated to adipocytes", "assay": "lipolysis assay, free glycerol in supernatant", "format": "cell-based", "details": "for Activity with regard to lipolysis (neither inhibited nor stimulated): max. use concentration 25 ppm, about 20 hours incubation; for IC50 inhibition of the lipolysis: mean values of at least 2 independent tests", "description": "Primary human subcutaneous preadipocytes (Lonza) are seeded in a 96-well microtiter plate at a concentration of 1×10^4 cells/well. Until confluence is reached, cultivation takes place at 37° C. and 5% CO2 in DMEM, enriched with 10% foetal calf serum. To induce the differentiation of preadipocytes to adipocytes there follows the addition DMEM enriched with 10% foetal calf serum, with added 10 μg/ml insulin, 1 μM dexamethasone and 1 mM IBMX (3-isobutyl-1-methylxanthine). A cultivation for 14 to 20 days follows. During this time, the medium can optionally be replaced by DMEM, enriched with 10% foetal calf serum.\nVarious concentrations of the test substances are applied to the cells in DMEM, with bovine serum albumen added. After about 20 hours of incubation, the quantification takes place of free glycerol in the supernatant of the cells, which is discharged therefrom after hydrolysis of triglycerides in the cells and is a measure of the lipolysis of the cells. The quantification of the free glycerol is carried out based on an enzymatic method with a free glycerol reagent.\nThe stimulation of the lipolysis in the presence of test substances is calculated according to the following equation: […]\nThe […] is calculated from the lipolysis stimulation [%] in a series of dilutions of tested samples. This is the concentration at which the lipolysis is 50% stimulated.\nThe inhibition of the lipolysis in the presence of test substances is calculated according to the following equation: […]\nThe IC50 is calculated from the lipolysis inhibition [%] in a series of dilutions of tested samples. This is the concentration at which the lipolysis is 50% inhibited."}, "fat cells": {"system": "fat cells", "assay": "own investigations on differentiation of fat cells", "format": "cell-based", "details": "depending on the use concentration"}, "[2]": {"assay": "phototoxic potential, photo-irritation factor according to OECD guideline 432", "details": "own investigations", "quoted_text": "The phototoxic potential is expressed as a photo-irritation factor (PIF). […] It applies here that with a PIF of less than 2, no phototoxic potential exists while a phototoxic potential exists at a PIF of more than 5. With a PIF of between 2 and 5, there is possibly a phototoxic potential."}}}
{"compound": "COc1ccc2c(c1)OC[C@H]1c3ccccc3O[C@@H]21", "note": "[3-methoxypterocarpan]", "values": [{"measurement": "IC50 inhibition of the LPL", "setting": "lipoprotein lipase (LPL)", "value": 67.0, "unit": "ppm"}, {"measurement": "IC50 adipogenesis inhibition", "setting": "3T3-L1-cells", "value": 50.9, "unit": "ppm"}, {"measurement": "IC50 inhibition of the PL", "setting": "pancreatic lipase (PL)", "value": 350, "unit": "ppm"}, {"measurement": "Activity with regard to lipolysis (neither inhibited nor stimulated)", "setting": "[1]", "value": "No activity (25 ppm)"}]}
{"compound": "COc1ccc(-c2coc3cc(O)ccc3c2=O)cc1", "note": "[Formononetin, reference compound]", "values": [{"measurement": "IC50 inhibition of the lipolysis", "setting": "[1]", "value": 53.7, "unit": "ppm"}]}
{"compound": "Oc1ccc2c(c1)OC[C@H]1c3cc4c(cc3O[C@@H]21)OCO4", "note": "[Maackiain]", "values": [{"measurement": "IC50 inhibition of the LPL", "setting": "lipoprotein lipase (LPL)", "value": 104.2, "unit": "ppm"}, {"measurement": "IC50 adipogenesis inhibition", "setting": "3T3-L1-cells", "value": 25.5, "unit": "ppm"}, {"measurement": "IC50 inhibition of the PL", "setting": "pancreatic lipase (PL)", "value": 147, "unit": "ppm"}, {"measurement": "Activity with regard to lipolysis (neither inhibited nor stimulated)", "setting": "[1]", "value": "No activity (25 ppm)"}]}
{"compound": "COc1ccc2c(c1)OC1c3ccc(O)cc3OCC21", "note": "(stereo not drawn) [Medicarpin]", "values": [{"measurement": "IC50 inhibition of the LPL", "setting": "lipoprotein lipase (LPL)", "value": 788, "unit": "ppm"}, {"measurement": "IC50 adipogenesis inhibition", "setting": "3T3-L1-cells", "value": 54.0, "unit": "ppm"}, {"measurement": "IC50 inhibition of the PL", "setting": "pancreatic lipase (PL)", "value": 425, "unit": "ppm"}, {"measurement": "Activity with regard to lipolysis (neither inhibited nor stimulated)", "setting": "[1]", "value": "No activity (25 ppm)"}]}
{"compound": "COc1cc(O)c2c(=O)c(-c3ccc(O)c(O)c3)coc2c1", "note": "[Santal, reference compound]", "values": [{"measurement": "IC50 inhibition of the lipolysis", "setting": "[1]", "value": 1.92, "unit": "ppm"}, {"measurement": "effect on lipolysis (route iii), in words", "setting": "[1]; own investigations", "value": "inhibition of lipolysis"}]}
{"compound": "O=c1c(-c2ccc(O)cc2)coc2cc(O)cc(O)c12", "note": "[genistein]", "values": [{"measurement": "effect on differentiation of fat cells, in words", "setting": "fat cells", "value": "inhibited or stimulated"}]}
{"compound": "COc1ccc(-c2coc3cc(O)c(OC)cc3c2=O)cc1O", "note": "[odoratin]", "values": [{"measurement": "phototoxic potential, in words", "setting": "[2]", "value": "notable phototoxic potential"}]}
{"compound": "cladastrin", "values": [{"measurement": "phototoxic potential, in words", "setting": "[2]", "value": "notable phototoxic potential"}]}
